Assay results taken from patent publication US20260206761A1, “HETEROARYL-TRIAZOLE COMPOUNDS AS PESTICIDES” (Bayer Aktiengesellschaft, priority 2019, published 2026).

Assays:
[1] = tested on: southern root-knot nematode (Meloidogyne incognita); experiment: Meloidogyne incognita test; assay type: in vivo; conditions: 336 h, application rate 20 ppm, after 14 days, read-out: nematicidal activity (based on gall formation)
Procedure: Meloidoyne incognita—Test
Solvent: 125.0 parts by weight of acetone
To produce a suitable preparation of active compound, 1 part by weight of active compound is mixed with the stated amount of solvent, and the concentrate is diluted with water to the desired concentration.
Vessels are filled with sand, a solution of the active ingredient, a suspension containing eggs and larvae of the southern root-knot nematode (Meloidogyne incognita) and salad seeds. The salad seeds germinate and the seedlings grow. Galls develop in the roots.
After 14 days the nematicidal activity is determined based on the percentage of gall formation. 100% means no galls were found and 0% means the number of galls found on the roots of the treated plants was equal to that in untreated control plants.

[2] = tested on: two spotted spidermite (Tetranychus urticae); experiment: Tetranychus urticae spray test OP-resistant; assay type: in vivo; conditions: 144 h, application rate 100 g/ha, after 6 days
Procedure: Tetranychus urticae—Spray Test OP-Resistant
Solvent: 78.0 parts by weight acetone • 1.5 parts by weight dimethylformamide
Emulsifier: alkylarylpolyglycol ether
To produce a suitable preparation of active compound, 1 part by weight of active compound is mixed with the stated amount of solvents and is diluted with water, containing an emulsifier concentration of 1000 ppm, to the desired concentration. Further test concentrations are prepared by dilution with emulsifier containing water.
French bean (Phaseolus vulgaris) leaf disks infected with all instars of the two spotted spidermite (Tetranychus urticae), are sprayed with a preparation of the active ingredient of the desired concentration.
After 6 days mortality in % is determined. 100% means all spider mites have been killed and 0% means none of the spider mites have been killed.

Structure (SMILES)	pest or weed control at 20 ppm [1]	mortality at 100 g/ha [2]
C[C@H](NC(=O)c1cc(OC(F)(F)F)cc(C2CC2)c1)c1ncnn1-c1ccccn1 [II-22]	90%	–
C[C@H](NC(=O)c1cc(C2CC2)cc(C(F)(F)F)c1)c1ncnn1-c1ccc(C#N)cn1 [II-26]	–	90%
C[C@H](NC(=O)c1cc(C(F)(F)F)cc(C2(C#N)CC2)c1)c1ncnn1-c1ccc(C#N)cn1 [II-47]	–	90%
